melting point: 69 to 73 °C
Compound: Cc1cccc(S(=O)(=O)NC(C)C)c1NC(=O)c1cc(C(F)(F)F)nn1-c1ncccc1Cl [Compound B3, 1-(3-Chloro-2-pyridinyl)-N-[2-methyl-6-[[(1-methylethyl)amino]sulfonyl]phenyl]-3-(trifluoromethyl)-1H-pyrazole-5-carboxamide]
